Values quoted from earlier work in patent US9364565B2, “Medical device with coating for capturing genetically-altered cells and methods of using same” (OrbusNeich Medical, Inc., priority 2000, dated 2016).

What was measured:
[1] = target: VEGFR-2 (Homo sapiens, UniProt P35968)
[2] = tested on: endothelial cells; conditions: 100 μg

Sequence of VEGFR-2 (P35968 20-1356): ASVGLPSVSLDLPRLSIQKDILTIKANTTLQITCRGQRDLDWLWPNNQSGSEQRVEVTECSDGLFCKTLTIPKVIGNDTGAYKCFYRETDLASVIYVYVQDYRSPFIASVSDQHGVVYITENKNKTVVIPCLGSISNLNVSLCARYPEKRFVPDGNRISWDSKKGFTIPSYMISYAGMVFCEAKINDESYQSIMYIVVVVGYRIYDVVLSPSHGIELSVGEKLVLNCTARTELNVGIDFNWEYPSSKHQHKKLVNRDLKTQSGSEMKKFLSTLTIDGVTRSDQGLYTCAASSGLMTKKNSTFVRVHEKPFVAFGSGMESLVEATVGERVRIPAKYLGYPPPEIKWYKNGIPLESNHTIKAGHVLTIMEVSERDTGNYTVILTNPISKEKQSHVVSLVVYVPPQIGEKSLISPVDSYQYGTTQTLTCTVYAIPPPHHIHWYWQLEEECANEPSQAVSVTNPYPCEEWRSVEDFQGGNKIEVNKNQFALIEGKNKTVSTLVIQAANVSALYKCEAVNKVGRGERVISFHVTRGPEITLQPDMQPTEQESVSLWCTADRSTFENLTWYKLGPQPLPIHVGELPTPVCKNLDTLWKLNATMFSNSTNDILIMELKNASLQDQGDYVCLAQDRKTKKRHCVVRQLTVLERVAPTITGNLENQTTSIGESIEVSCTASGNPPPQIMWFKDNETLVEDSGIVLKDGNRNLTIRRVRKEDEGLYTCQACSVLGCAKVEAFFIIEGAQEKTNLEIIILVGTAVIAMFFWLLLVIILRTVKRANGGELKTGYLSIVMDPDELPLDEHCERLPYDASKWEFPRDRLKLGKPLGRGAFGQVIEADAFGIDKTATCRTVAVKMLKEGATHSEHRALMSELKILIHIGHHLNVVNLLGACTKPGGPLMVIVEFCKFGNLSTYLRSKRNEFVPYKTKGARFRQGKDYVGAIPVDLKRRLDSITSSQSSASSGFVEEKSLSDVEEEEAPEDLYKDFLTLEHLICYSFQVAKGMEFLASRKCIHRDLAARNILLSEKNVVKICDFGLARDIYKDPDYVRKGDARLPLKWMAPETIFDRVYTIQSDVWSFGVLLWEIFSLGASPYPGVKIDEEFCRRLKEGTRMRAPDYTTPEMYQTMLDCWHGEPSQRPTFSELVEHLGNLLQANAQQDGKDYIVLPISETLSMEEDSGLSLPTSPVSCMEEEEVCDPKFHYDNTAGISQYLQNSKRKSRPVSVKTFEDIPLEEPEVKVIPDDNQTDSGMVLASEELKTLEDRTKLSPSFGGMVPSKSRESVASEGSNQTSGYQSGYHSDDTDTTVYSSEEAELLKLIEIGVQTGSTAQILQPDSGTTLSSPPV

## Cc1[nH]c(/C=C2\C(=O)Nc3ccccc32)c(C)c1CCC(=O)O [SU6668]
[1]
  binding to VEGFR-2: bind to VEGFR-2

## VEGF
[2]
  adherence of endothelial cells on a medical device: stimulate the adherence of endothelial cells on a medical device
